Measured values taken from patent publication US20220167645A1, “METHODS OF IMPROVING FISH FEED CONVERSION RATE AND SURVIVAL” (AQUINOVO LTD., priority 2019, published 2022).
Numbered stars: 1 amine (or outer) side, 2 acyl side, 3 side chain; on linkers, the order of the positions; unused ones are H or OH. Square brackets hold non-standard residues; d marks the D form. Suc = O=C(CCC(=O)[*:2])[*:1]; NMeV = CN[C@H](C(=O)O)C(C)C; βAla = NCCC(=O)O

Test system: Tilapia fish
Assay: Experiment #3: tilapia fed AN6-coated feed, treatment schedules 1 to 8 (survival, weight, length, size distribution, FCR)
Format: in vivo
Conditions: for Average weight/fish (g) / Total weight/cage (g) / Average FCR/cage / Average density (body/cage) / Average weight gain/fish (g): D 236 to D 279, % change relative to control; for % big fish (Big fish 279 dph >1000 g) / % small fish (Small fish 279 dph >476 g) / Δ Treatment - Control (%) big fish (>1000 g) / Δ Treatment - Control (%) small fish (>476 g) / Big fish # (Big fish 279 dph >1000 g) / Small fish # (Small fish 279 dph): 279 dph
Method: The following fish feed was used in this experiment: MeM (powder, manufactured by Bern Aqua), Nanolis P1, P2 (pellet sizes of 1 mm, 1.2-1.5 mm, respectively, manufactured by Ocialis) and Tilaphi 2, 3 & 4 (pellet sizes of 2 mm, 3-4 mm & 5.5 mm manufactured by Ocialis). The feed content is in described in Table 4.
Feed was coated using the following general procedure: Different amounts of the peptide AN6 (SEQ ID NO: 6) were prepared by dissolving the peptide in Tris-HCl solution (50 mM, pH=8.8) in ratio of 15 mg peptide to 1.25 ml Tris-HCl solution. Then, each of the various solutions was mixed with 3 Kg of the basic feed pellets (depending on fish size) using an electric mixer. The peptide-feed mixtures where then dried either in oven at 40° C. for 24 hours or in drying drum (at room temperature) for few hours to form coated pellets.
Tilapia fish (n=4800) were raised from day 10 (0.05 g) post-hatch (dph) in indoor tanks and then transferred to outdoor cages in ponds (40-279 dph). Each cage/tank is an experimental unit. The fish were fed to apparent satiation 2-4 times a day with feed appropriate to their age and treatment as described in Table 5.
The trial included total 48 cages representing 8 treatments, with 6 repeats each. Each cage contained about 100 fish. […] Fed to fish throughout the entire growth-trial period (for 279 days); • Treatment 2 (5 ppm from 10 dph for 120 days): The control diet with the addition of 5 mg peptide/kg of diet (Feed F). Fish were fed the peptide enriched diet for 120 days (4 months), from 10 days of age (D0—the first day of the experiment) to 130 days of age (D120), and the control diet during the last 6 months (159 days) (Feed E); • Treatment 3 (10 ppm from 10 dph for 60 days): The control diet with the addition of 10 mg peptide/kg of diet (Feed G). […] Fish were fed the peptide enriched diet for 90 days (3 months) from 10 days of age (D0) to 100 days of age (D90) and the control diet for the last 7 months (189 days) (Feed E); • Treatment 5 (10 ppm from 10 dph for 120 days): The control diet with the addition of 10 mg peptide/kg of diet (Feed G). Fish were fed the peptide enriched diet for 120 days (4 months) from 10 days of age (D0) to 130 days of age (D120) and the control diet for the last 6 months (159 days) (Feed E); • Treatment 6 (10 ppm from 100 dph for 30 days): The control diet with the addition of 10 mg peptide/kg of diet (Feed G). Fish were fed the peptide enriched diet for 30 days (1 month) from 100 days of age (D90) to 130 days of age (D120) and the control diet for the first three months (90 days from D0 to D90) and the last 6 months (159 days) (Feed E); • Treatment 7 (30 ppm from 10 dph for 60 days): The control diet with the addition of 30 mg peptide/kg of diet (Feed H). Fish were fed the peptide enriched diet for 60 days (2 months) from 10 days of age (D0) to 70 days of age (D60), and the control diet during the last 8 months (219 days) (Feed E); • Treatment 8 (30 ppm from 10 dph for 90 days): The control diet with the addition of 30 mg peptide/kg of diet (Feed H). Fish were fed the peptide enriched diet for 90 days (3 months) from 10 days of age (D0) to 100 days of age (D90) and the control diet for the last 7 months (189 days) (Feed E).
During the experimental period, fish weight and length were measured once a month. Individual fish sex was determined at days 96 and 279 of the experiment. Average fish weight per cage were calculated for each measurement period (FIG. 8). […] Between two weight measurements, average weight gain (FIG. 9A) and daily growth rates (FIG. 9B) were calculated by subtracting the average weight at the beginning and end of the measuring period and dividing by the number of days between.
In order to determine the efficiency of feed conversion into fish substance in experiments (#1, #2, #3), FCR values which reflect the amount of feed needed to grow a kilogram fish, were calculated for each period and for the entire fish growth period. […]

[1] = Treatment 5 (10 ppm from 10 dph for 120 days)
[2] = Treatment 5 (10 ppm from 10 dph for 120 days), female fish, D 96
[3] = Treatment 5 (10 ppm from 10 dph for 120 days), female fish, D 279
[4] = Treatment 5 (10 ppm from 10 dph for 120 days), male fish, D 96
[5] = Treatment 5 (10 ppm from 10 dph for 120 days), male fish, D 279
[6] = Treatment 6 (10 ppm from 100 dph for 30 days)
[7] = Treatment 6 (10 ppm from 100 dph for 30 days), of 442 fish
[8] = Treatment 6 (10 ppm from 100 dph for 30 days), female fish, D 96
[9] = Treatment 6 (10 ppm from 100 dph for 30 days), female fish, D 279
[10] = Treatment 6 (10 ppm from 100 dph for 30 days), male fish, D 96
[11] = Treatment 6 (10 ppm from 100 dph for 30 days), male fish, D 279
[12] = Treatment 7 (30 ppm from 10 dph for 60 days)
[13] = Treatment 7 (30 ppm from 10 dph for 60 days), of 427 fish
[14] = Treatment 7 (30 ppm from 10 dph for 60 days), female fish, D 96
[15] = Treatment 7 (30 ppm from 10 dph for 60 days), female fish, D 279
[16] = Treatment 7 (30 ppm from 10 dph for 60 days), male fish, D 96
[17] = Treatment 7 (30 ppm from 10 dph for 60 days), male fish, D 279
[18] = Treatment 8 (30 ppm from 10 dph for 90 days)
[19] = Treatment 8 (30 ppm from 10 dph for 90 days), of 446 fish
[20] = Treatment 8 (30 ppm from 10 dph for 90 days), female fish, D 96
[21] = Treatment 8 (30 ppm from 10 dph for 90 days), female fish, D 279
[22] = Treatment 8 (30 ppm from 10 dph for 90 days), male fish, D 96
[23] = Treatment 8 (30 ppm from 10 dph for 90 days), male fish, D 279

Succ-Asp-Ser- D-Trp -N(Me)Val-βAla-Leu-Met-NH2 (Suc-DS[dW][NMeV][βAla]LM-NH2; SMILES CSCC[C@H](NC(=O)[C@H](CC(C)C)NC(=O)CCNC(=O)[C@H](C(C)C)N(C)C(=O)[C@@H](Cc1c[nH]c2ccccc12)NC(=O)[C@H](CO)NC(=O)[C@H](CC(=O)O)NC(=O)CCC(=O)O)C(N)=O) [AN6]
Average weight/fish (g) [1]: 3.29% | Total weight/cage (g) [1]: 1.28% | Length/fish (cm) Mean [2]: 15.95 cm | Weight/fish (g) Mean [2]: 82.96 g | Δ Mean % (Treatment vs. control) Length/fish [2]: 1.01% | Δ Mean % (Treatment vs. control) Weight/fish [2]: 0.90% | Length/fish (cm) Mean [3]: 30.33 cm | Weight/fish (g) Mean [3]: 611.23 g | Δ Mean % (Treatment vs. control) Length/fish [3]: 0.66% | Δ Mean % (Treatment vs. control) Weight/fish [3]: 1.55% | Length/fish (cm) Mean [4]: 17.08 cm | Weight/fish (g) Mean [4]: 100.46 g | Δ Mean % (Treatment vs. control) Length/fish [4]: −0.81% | Δ Mean % (Treatment vs. control) Weight/fish [4]: −4.78% | Length/fish (cm) Mean [5]: 34.21 cm | Weight/fish (g) Mean [5]: 859.1 g | Δ Mean % (Treatment vs. control) Length/fish [5]: −0.49% | Δ Mean % (Treatment vs. control) Weight/fish [5]: −0.72% | % big fish (Big fish 279 dph >1000 g) [6]: 12.9% | % small fish (Small fish 279 dph >476 g) [6]: 6.6% | Δ Treatment - Control (%) big fish (>1000 g) [6]: 2.7% | Δ Treatment - Control (%) small fish (>476 g) [6]: −2.6% | Big fish # (Big fish 279 dph >1000 g) [7]: 57 | Small fish # (Small fish 279 dph) [7]: 29 | Average FCR/cage [6]: 0.00% | Average density (body/cage) [6]: −1.55% | Average weight gain/fish (g) [6]: 2.11% | Average weight/fish (g) [6]: 0.97% | Total weight/cage (g) [6]: −0.53% | Length/fish (cm) Mean [8]: 16.04 cm | Weight/fish (g) Mean [8]: 87.28 g | Δ Mean % (Treatment vs. control) Length/fish [8]: 1.58% | Δ Mean % (Treatment vs. control) Weight/fish [8]: 6.15% | Length/fish (cm) Mean [9]: 30.45 cm | Weight/fish (g) Mean [9]: 617.44 g | Δ Mean % (Treatment vs. control) Length/fish [9]: 1.06% | Δ Mean % (Treatment vs. control) Weight/fish [9]: 2.58% | Length/fish (cm) Mean [10]: 17.07 cm | Weight/fish (g) Mean [10]: 105.78 g | Δ Mean % (Treatment vs. control) Length/fish [10]: −0.87% | Δ Mean % (Treatment vs. control) Weight/fish [10]: 0.27% | Length/fish (cm) Mean [11]: 34.19 cm | Weight/fish (g) Mean [11]: 863.26 g | Δ Mean % (Treatment vs. control) Length/fish [11]: −0.55% | Δ Mean % (Treatment vs. control) Weight/fish [11]: −0.24% | % big fish (Big fish 279 dph >1000 g) [12]: 10.8% | % small fish (Small fish 279 dph >476 g) [12]: 5.4% | Δ Treatment - Control (%) big fish (>1000 g) [12]: 0.5% | Δ Treatment - Control (%) small fish (>476 g) [12]: −3.7% | Big fish # (Big fish 279 dph >1000 g) [13]: 46 | Small fish # (Small fish 279 dph) [13]: 23 | Average FCR/cage [12]: 0.00% | Average density (body/cage) [12]: −4.89% | Average weight gain/fish (g) [12]: 1.43% | Average weight/fish (g) [12]: 1.37% | Total weight/cage (g) [12]: −4.56% | Length/fish (cm) Mean [14]: 15.73 cm | Weight/fish (g) Mean [14]: 82.52 g | Δ Mean % (Treatment vs. control) Length/fish [14]: −0.38% | Δ Mean % (Treatment vs. control) Weight/fish [14]: 0.36% | Length/fish (cm) Mean [15]: 30.53 cm | Weight/fish (g) Mean [15]: 628.2 g | Δ Mean % (Treatment vs. control) Length/fish [15]: 1.33% | Δ Mean % (Treatment vs. control) Weight/fish [15]: 4.37% | Length/fish (cm) Mean [16]: 17.78 cm | Weight/fish (g) Mean [16]: 109.68 g | Δ Mean % (Treatment vs. control) Length/fish [16]: 3.25% | Δ Mean % (Treatment vs. control) Weight/fish [16]: 3.96% | Length/fish (cm) Mean [17]: 34.04 cm | Weight/fish (g) Mean [17]: 840.39 g | Δ Mean % (Treatment vs. control) Length/fish [17]: −0.99% | Δ Mean % (Treatment vs. control) Weight/fish [17]: −2.88% | % big fish (Big fish 279 dph >1000 g) [18]: 20.4% | % small fish (Small fish 279 dph >476 g) [18]: 5.6% | Δ Treatment - Control (%) big fish (>1000 g) [18]: 10.2% | Δ Treatment - Control (%) small fish (>476 g) [18]: −3.5% | Big fish # (Big fish 279 dph >1000 g) [19]: 91 | Small fish # (Small fish 279 dph) [19]: 25 | Average FCR/cage [18]: −2.14% | Average density (body/cage) [18]: −0.67% | Average weight gain/fish (g) [18]: 13.57% | Average weight/fish (g) [18]: 7.11% | Total weight/cage (g) [18]: 6.23% | Length/fish (cm) Mean [20]: 16.17 cm | Weight/fish (g) Mean [20]: 89.02 g | Δ Mean % (Treatment vs. control) Length/fish [20]: 2.41% | Δ Mean % (Treatment vs. control) Weight/fish [20]: 8.27% | Length/fish (cm) Mean [21]: 30.65 cm | Weight/fish (g) Mean [21]: 649.16 g | Δ Mean % (Treatment vs. control) Length/fish [21]: 1.73% | Δ Mean % (Treatment vs. control) Weight/fish [21]: 7.85% | Length/fish (cm) Mean [22]: 17.21 cm | Weight/fish (g) Mean [22]: 106.64 g | Δ Mean % (Treatment vs. control) Length/fish [22]: −0.06% | Δ Mean % (Treatment vs. control) Weight/fish [22]: 1.08% | Length/fish (cm) Mean [23]: 34.56 cm | Weight/fish (g) Mean [23]: 912.05 g | Δ Mean % (Treatment vs. control) Length/fish [23]: 0.52% | Δ Mean % (Treatment vs. control) Weight/fish [23]: 5.40% | average weight of males and females compared to their respective controls (differential analysis of male vs female performances): improved average weight
